For one data set, the system named is p38 MAPK. The data set can be described thus: CETSA in brown adipocytes, p38 MAPK. Format: binding, mouse. The conditions noted are these: 10 μM for 8 h. As to the method: CETSA assays were performed according to known methods. Briefly, differentiated brown adipocytes (one 10 cm dish per treatment) were treated with vehicle or compounds, trypsinized, counted, and re-suspended in approximately 450 μl PBS containing protease inhibitors (volumes were adjusted to have the same number of cells in each treatment). For each sample, 18 μl was distributed into each of 7 PCR tubes. Samples were heated using a thermocycler with a temperature gradient (iCycler, Biorad) for 3 min, followed by 3 min at room temperature, and then snap-frozen in liquid N2. After two freeze-thaw cycles, samples were centrifuged at 20,000 g for 15 min at 4° C., and the supernatants were transferred to another set of tubes. Proteins were analyzed by immunoblotting.
The potential interaction of Z160 with PKA subunits and AKAPs was assessed first by identifying which PKA subunits and AKAP isoforms are normally present in BAT. […] To perform the CETSA assays, cultured brown adipocytes were incubated with 10 μM Z160 for 8 h, after which the thermal shift was analyzed by Western blot.

Another data set deals with PKA subunits. The data set can be described thus: Western blot of mitochondria-associated proteins, PKA subunits. The format is cell-based, mouse. Conditions: brown adipocytes, 10 μM, after 6-8 h. As for the experimental part: Cells and tissues were lysed in 10 mM Tris pH 7.5, 10 mM NaCl, 1 mM EDTA and 0.5% Triton X-100, supplemented with complete mini EDTA-free protease (Roche Diagnostics) and phosphatase (Cocktail 2 and 3, Sigma) inhibitors, followed by 10 second sonication. For analysis of mitochondrial proteins, mitochondria were isolated from cells by dual centrifugation, as described. Protein lysates were separated by SDS-PAGE and transferred to a nitrocellulose membrane. Transfer was confirmed by Ponceau staining (P7170, Sigma). After blocking in 5% milk, 0.1% Tween-20 in Tris-buffered saline (TBS), primary antibody was incubated overnight at 4° C. in 5% bovine serum albumin and 0.1% Tween-20 in TBS. Primary antibodies against ACTB (GTX109639, GeneTex), AKAP1 (5203, Cell Signaling), AKAP6 (07-087, Millipore), Cytochrome c (136F3, Cell Signaling), electron transport chain protein complexes (Total OXPHOS rodent WB antibody cocktail ab110413, Abcam), GAPDH (GTX100118, Genetex), active p38 MAPK (V1211, Promega), total p38 MAPK (8690, Cell Signaling), PGC1α (AB3242, Millipore), phospho-(Ser/Thr) PKA substrate (9621, Cell Signaling), PKA C-α (4782, Cell Signaling), PKA RII-β (ab75993, Abcam), and UCP1 (662045, Calbiochem) were used at 1:2000. […] Quantification using representative bands from the Ponceau staining was performed with ImageJ. […]
In general terms: A western blot detects proteins with antibodies after separation by electrophoresis.

In data set [1] the test system is electron transport chain protein complexes. Description: Western blot of electron transport chain protein complexes in isolated mitochondria. The format is cell-based, mouse. The conditions noted are these: overnight 10 μM. As to the method: Cells and tissues were lysed in 10 mM Tris pH 7.5, 10 mM NaCl, 1 mM EDTA and 0.5% Triton X-100, supplemented with complete mini EDTA-free protease (Roche Diagnostics) and phosphatase (Cocktail 2 and 3, Sigma) inhibitors, followed by 10 second sonication. For analysis of mitochondrial proteins, mitochondria were isolated from cells by dual centrifugation, as described. Protein lysates were separated by SDS-PAGE and transferred to a nitrocellulose membrane. Transfer was confirmed by Ponceau staining (P7170, Sigma). After blocking in 5% milk, 0.1% Tween-20 in Tris-buffered saline (TBS), primary antibody was incubated overnight at 4° C. in 5% bovine serum albumin and 0.1% Tween-20 in TBS. Primary antibodies against ACTB (GTX109639, GeneTex), AKAP1 (5203, Cell Signaling), AKAP6 (07-087, Millipore), Cytochrome c (136F3, Cell Signaling), electron transport chain protein complexes (Total OXPHOS rodent WB antibody cocktail ab110413, Abcam), GAPDH (GTX100118, Genetex), active p38 MAPK (V1211, Promega), total p38 MAPK (8690, Cell Signaling), PGC1α (AB3242, Millipore), phospho-(Ser/Thr) PKA substrate (9621, Cell Signaling), PKA C-α (4782, Cell Signaling), PKA RII-β (ab75993, Abcam), and UCP1 (662045, Calbiochem) were used at 1:2000. […] Quantification using representative bands from the Ponceau staining was performed with ImageJ.

The next data set relates to brown adipocytes. Description: Lipolysis assay in brown adipocytes. Format: cell-based, mouse. The conditions noted are these: immortalized brown adipocytes, 10 μM overnight. As to the method:
Lipolysis was assessed in cultured cells using medium collected over 3 h with the Adipolysis assay kit (AB100, Millipore), according to the manufacturer's protocol.

For the next data set, the system named is C57BL/6J male mice. Description: Thermogenesis in vivo after subcutaneous injection. Conditions: single subcutaneous injection 1.5 mg/kg. As to the method: All mouse studies were conducted in accordance with and approved by the Institutional Animal Research Committee of the University of California, Los Angeles. C57BL/6J male mice were obtained from the Jackson Laboratory. For the drug injection, Z160 (diluted in 100 μl DMSO) was injected subcutaneously, near BAT, at 1.5 mg/kg body weight and compared with vehicle alone. […] Body temperature was obtained with a rectal probe (BAT-12, Physitemp). Aspartate aminotransferase (AST) activity was determined from plasma according to the manufacturer's protocol (MAK055, Sigma).

The test system of a further data set is AKAP1mut cells. Description: Gene expression in AKAP1mut and AKAP1wt brown adipocyte cell lines. Format: cell-based, mouse. Conditions: 10 μM. As for the experimental part: RNA levels were measured by qPCR according to known methods. Briefly, RNA was extracted with TRIzol (Invitrogen) and reverse transcribed with iScript (Bio-Rad). Real-time PCR analysis was performed with a CFX Connect (Bio-Rad).
Two gRNAs were selected using sgRNA Designer from the Broad Institute (gRNA1: […] (SEQ ID NO: 46) and gRNA2: […] (SEQ ID NO: 47)). Cloning was performed using pSpCas9 (BB)-2A-puro (PX459) V2.0 vector (Addgene plasmid #62988). Plasmid construction was confirmed by sequencing. A puromycin-sensitive brown adipocyte cell line was transfected with the two plasmids and selected with […] puromycin. Single-cell cloning was performed in a 96-well plate and clones selected by Western blot to detect AKAP1 protein knockdown, and confirmed by sequencing after PCR amplification (PCR primers: […] (SEQ ID NO: 48) and […] (SEQ ID NO: 49)).
To further assess the requirement of AKAP1 to mediate the effects of Z160, AKAP1 was inactivated in an immortalized brown adipocyte cell line (AKAP1wt) using CRISPR/Cas9 gene editing. One clone (AKAP1mut) was selected based on very low AKAP1 protein levels (FIG. 10A).

In the case of `COc1ccc(NC(=O)CSc2nc3ccccc3c(=O)[nH]2)c(OC)c1` [Z160], in the data set with p38 MAPK, the “heat stability of p38 MAPK” value is reported as “did not influence the heat stability”. Moreover, the “mitochondrial association of PKA subunits” value with PKA subunits is listed as “increased mitochondrial association”. Further, the “mitochondrial complex protein abundance” value in data set [1] was “slight enhancement”. For the same compound, the lipolysis entry in the data set on brown adipocytes was “induced lipolysis”. In the data set on C57BL/6J male mice, the “Ucp1 mRNA and protein levels in BAT” value is “elevated”; the “expression of genes implicated in mitochondrial function and lipolysis in BAT” value is “enhanced expression”; the plasma glucose levels came to 157.6 ± 26.2 mg/dL. This compound registered a body temperature in the data set with C57BL/6J male mice (measured 24 h later) of 38.3 °C. Further, the “increase in body temperature” value in the data set on C57BL/6J male mice (measured 24 h later, vs vehicle) worked out at 0.8 °C. In addition, in the data set on C57BL/6J male mice (plasma), the “liver toxicity assessed by circulating aspartate aminotransferase (AST) levels” value is given as “No liver toxicity”. Also, the “induced expression of Hoxa5, Cidea, Elovl3, Acox1 and Cpt1b in AKAP1mut” value in the data set with AKAP1mut cells (AKAP1mut vs AKAP1wt) is recorded as “blunted or reduced”. For the same compound, the “Ucp1 expression response in AKAP1mut cells” value in the data set with AKAP1mut cells (AKAP1mut) is given as “did not respond”. Also, in the data set on AKAP1mut cells (both AKAP1wt and AKAP1mut cells), the Ppargc1a expression entry is “increased”.
